# Results: article PMC13266984 (Journal of medicinal chemistry, 2026)
# Key:
# OE19 (3A1) = target: T1, OE19 (3A1) (Homo sapiens, UniProt P30838); experiment: Cellular ALDEFLUOR assay in OE19 cells (preferential ALDH3A1 expression)
# T1 sequence (P30838 1-453): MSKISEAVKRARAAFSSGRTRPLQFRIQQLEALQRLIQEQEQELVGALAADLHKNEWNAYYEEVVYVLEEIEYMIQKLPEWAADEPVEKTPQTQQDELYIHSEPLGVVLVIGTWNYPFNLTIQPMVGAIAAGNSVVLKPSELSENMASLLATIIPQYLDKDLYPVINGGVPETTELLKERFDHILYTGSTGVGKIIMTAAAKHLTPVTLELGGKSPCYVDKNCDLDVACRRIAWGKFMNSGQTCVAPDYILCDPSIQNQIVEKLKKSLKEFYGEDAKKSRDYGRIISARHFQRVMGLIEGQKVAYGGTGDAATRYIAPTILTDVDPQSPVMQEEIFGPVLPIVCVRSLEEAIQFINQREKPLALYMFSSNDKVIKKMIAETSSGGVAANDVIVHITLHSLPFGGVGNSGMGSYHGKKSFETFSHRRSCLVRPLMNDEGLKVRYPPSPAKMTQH
# Human ALDH3A1 = target: T2, Human ALDH3A1 (Homo sapiens, UniProt P30838); experiment: ALDH3A1 biochemical assay (benzaldehyde/NADP+, diaphorase-resazurin readout, 1,536-well)
# T2 sequence (P30838 1-453): T1 sequence (P30838 1-453)
# [1] = Table S4, biochemical curve class
# [2] = Table S5, biochemical curve class
Compound,AC50 (OE19 (3A1)),"Cell_Efficacy (OE19 (3A1); Table S4, OE19 cells)","Cell_CC-v2 (OE19 (3A1); Table S4, cellular curve class)",AC50 (Human ALDH3A1),"Efficacy (Human ALDH3A1; Table S4, biochemical)",CC-v2 (Human ALDH3A1; [1]),"Cell_Efficacy (OE19 (3A1); Table S5, OE19 cells)","Cell_CC-v2 (OE19 (3A1); Table S5, cellular curve class)","Efficacy (Human ALDH3A1; Table S5, biochemical)",CC-v2 (Human ALDH3A1; [2])
Cc1cccc(CNC(=O)c2csc(N3CCN(c4cccc(OCc5ccccc5C)c4)CC3)n2)c1 [NCGC01211373-01],1110 nM,-85.56,-1.1,360 nM,-60.22,-1.2,,,,
COc1ccc(Cl)c(N2CCN(c3nc(C(=O)NCc4cccc(C)c4)cs3)CC2)c1 [NCGC01211381-01],31300 nM,-102.69,-2.3,580 nM,-89.43,-1.1,,,,
Cc1cccc(CNC(=O)c2csc(N3CCN(c4c(F)cccc4F)CC3)n2)c1 [NCGC01211383-01],15700 nM,-112.70,-2.1,910 nM,-88.99,-1.1,,,,
Cc1cccc(CNC(=O)c2csc(N3CCN(c4ccc(OC(F)(F)F)cc4)CC3)n2)c1 [NCGC01211384-01],3930 nM,-82.59,-1.1,650 nM,-96.17,-1.1,,,,
COc1cc(N2CCN(c3nc(C(=O)NCc4cccc(C)c4)cs3)CC2)cc(OC)c1OC [NCGC01211386-01],9880 nM,-70.97,-1.2,3640 nM,-76.22,-1.2,,,,
COc1ccc(N2CCN(c3nc(C(=O)NCc4cccc(C)c4)cs3)CC2)cc1O [NCGC01211394-01],15700 nM,-88.85,-2.3,1150 nM,-71.12,-1.2,,,,
COc1cc(N2CCN(c3nc(C(=O)NCc4cccc(C)c4)cs3)CC2)ccc1F [NCGC01211397-01],2790 nM,-82.14,-1.1,2890 nM,-71.38,-1.2,,,,
CCc1ccc(N2CCN(c3nc(C(=O)NCc4cccc(C)c4)cs3)CC2)cc1Cl [NCGC01211398-01],2480 nM,-99.68,-1.1,580 nM,-91.75,-1.1,,,,
Cc1cccc(CNC(=O)c2csc(N3CCN(c4cccc(C)c4)CC3)n2)c1 [NCGC01211399-01],5560 nM,-101.59,-1.3,1150 nM,-77.88,-1.2,,,,
Cc1cccc(CNC(=O)c2csc(N3CCN(c4cc(Cl)c(Cl)c(Cl)c4)CC3)n2)c1 [NCGC01211545-01],390 nM,-73.43,-1.2,580 nM,-72.19,-1.2,,,,
COc1ccc(N2CCN(c3nc(C(=O)NCc4cccc(C(F)(F)F)c4)cs3)CC2)cc1 [NCGC01211588-01],1970 nM,-97.51,-1.1,1290 nM,-45.52,-1.2,,,,
COc1ccc(N2CCN(c3nc(C(=O)NCc4cccc(C)c4)cs3)CC2)cc1OC [NCGC01211669-01],8810 nM,-91.42,-1.1,6470 nM,-51.05,-1.2,,,,
CCOC(=O)Cc1ccc(N2CCN(c3nc(C(=O)NCc4cccc(C)c4)cs3)CC2)cc1 [NCGC01212809-01],3930 nM,-80.26,-1.1,3240 nM,-99.09,-1.1,,,,
Cc1cccc(CNC(=O)c2csc(N3CCN(c4cncc(Br)c4)CC3)n2)c1 [NCGC01212814-01],,0.00,4,1290 nM,-92.59,-1.1,,,,
Cc1cccc(CNC(=O)c2csc(N3CCN(c4cccc(F)c4)CC3)n2)c1 [NCGC01219288-01],990 nM,-85.92,-1.1,1020 nM,-96.39,-1.1,,,,
Cc1cccc(CNC(=O)c2csc(N3CCN(c4cccc(OC(F)(F)F)c4)CC3)n2)c1 [NCGC01219289-01],990 nM,-93.51,-1.1,730 nM,-97.63,-1.1,,,,
Cc1cccc(CNC(=O)c2csc(N3CCN(c4ccc(F)cc4)CC3)n2)c1 [NCGC01219292-01],880 nM,-90.33,-1.3,1150 nM,-94.91,-1.1,,,,
O=C(Nc1ccncc1)c1ccc(CNC(=O)c2csc(N3CCN(c4cccc(C(F)(F)F)c4)CC3)n2)cc1 [NCGC01396478-01],6310 nM,,,,,,-114.29,-2.1,-22.34,4
O=C(NCc1ccc(Br)c(C(F)(F)F)c1)c1csc(N2CCN(c3cccc(C(F)(F)F)c3)CC2)n1 [NCGC01396480-01],1360 nM,,,11.2 nM,,,-77.80,-1.4,-96.06,-1.1
O=C(NCc1ccc2c(c1)COC2=O)c1csc(N2CCN(c3cccc(C(F)(F)F)c3)CC2)n1 [NCGC01396481-01],342 nM,,,39.8 nM,,,-73.69,-1.4,-98.89,-1.1
COc1cc(CNC(=O)c2csc(N3CCN(c4cccc(C(F)(F)F)c4)CC3)n2)ccc1F [NCGC01396486-01],,,,15.9 nM,,,0.00,4,-100.89,-1.1
O=C(NCc1ccc2c(c1)C(=O)NCC2)c1csc(N2CCN(c3cccc(C(F)(F)F)c3)CC2)n1 [NCGC01397286-01],398 nM,,,447 nM,,,-10.99,5,-60.58,-1.2
CC(=O)c1cccc(CNC(=O)c2csc(N3CCN(c4cccc(C(F)(F)F)c4)CC3)n2)c1 [NCGC01397289-01],342 nM,,,25.1 nM,,,-79.11,-1.3,-100.97,-1.1
O=C(NCc1ccc2c(c1)CNC2=O)c1csc(N2CCN(c3cccc(C(F)(F)F)c3)CC2)n1 [NCGC01397290-02],,,,398 nM,,,0.00,5,-53.79,-1.2
CC(=O)c1ccc(CNC(=O)c2csc(N3CCN(c4cccc(C(F)(F)F)c4)CC3)n2)cc1 [NCGC01397292-01],683 nM,,,20 nM,,,-111.50,-2.1,-100.00,-1.1
N#Cc1ccc(CNC(=O)c2csc(N3CCN(c4cccc(C(F)(F)F)c4)CC3)n2)cc1F [NCGC01397293-01],766 nM,,,5.6 nM,,,-101.81,-1.1,-100.05,-1.1
